We go through 59 compounds from patent US11485736B2 (KSQ Therapeutics, Inc., priority 2018, dated 2022).

pIC50: −log10 of the molar value.

Sequence of USP1/UAF1 (O94782 whole entry): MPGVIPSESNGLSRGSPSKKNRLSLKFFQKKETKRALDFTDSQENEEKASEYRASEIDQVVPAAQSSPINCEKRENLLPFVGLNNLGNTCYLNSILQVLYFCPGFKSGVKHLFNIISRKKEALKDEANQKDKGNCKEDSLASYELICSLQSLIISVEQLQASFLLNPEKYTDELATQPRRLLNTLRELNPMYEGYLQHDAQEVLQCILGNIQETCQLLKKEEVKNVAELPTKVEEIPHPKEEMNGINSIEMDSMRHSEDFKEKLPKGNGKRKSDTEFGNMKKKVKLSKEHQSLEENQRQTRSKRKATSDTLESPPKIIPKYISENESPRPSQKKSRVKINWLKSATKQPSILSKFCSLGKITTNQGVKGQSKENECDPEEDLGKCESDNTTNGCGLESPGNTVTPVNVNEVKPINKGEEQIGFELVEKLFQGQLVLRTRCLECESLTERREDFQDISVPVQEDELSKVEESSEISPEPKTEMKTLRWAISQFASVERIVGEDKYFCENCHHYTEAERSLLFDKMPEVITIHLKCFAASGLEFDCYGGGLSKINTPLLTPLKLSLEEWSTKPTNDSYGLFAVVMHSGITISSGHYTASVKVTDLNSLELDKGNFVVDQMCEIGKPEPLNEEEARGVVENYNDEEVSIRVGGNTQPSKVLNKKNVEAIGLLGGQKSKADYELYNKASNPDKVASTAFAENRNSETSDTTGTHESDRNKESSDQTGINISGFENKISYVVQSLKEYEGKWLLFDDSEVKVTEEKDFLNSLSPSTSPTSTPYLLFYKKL
Sequence of USP1/UAF1 (Q8TAF3 whole entry partner): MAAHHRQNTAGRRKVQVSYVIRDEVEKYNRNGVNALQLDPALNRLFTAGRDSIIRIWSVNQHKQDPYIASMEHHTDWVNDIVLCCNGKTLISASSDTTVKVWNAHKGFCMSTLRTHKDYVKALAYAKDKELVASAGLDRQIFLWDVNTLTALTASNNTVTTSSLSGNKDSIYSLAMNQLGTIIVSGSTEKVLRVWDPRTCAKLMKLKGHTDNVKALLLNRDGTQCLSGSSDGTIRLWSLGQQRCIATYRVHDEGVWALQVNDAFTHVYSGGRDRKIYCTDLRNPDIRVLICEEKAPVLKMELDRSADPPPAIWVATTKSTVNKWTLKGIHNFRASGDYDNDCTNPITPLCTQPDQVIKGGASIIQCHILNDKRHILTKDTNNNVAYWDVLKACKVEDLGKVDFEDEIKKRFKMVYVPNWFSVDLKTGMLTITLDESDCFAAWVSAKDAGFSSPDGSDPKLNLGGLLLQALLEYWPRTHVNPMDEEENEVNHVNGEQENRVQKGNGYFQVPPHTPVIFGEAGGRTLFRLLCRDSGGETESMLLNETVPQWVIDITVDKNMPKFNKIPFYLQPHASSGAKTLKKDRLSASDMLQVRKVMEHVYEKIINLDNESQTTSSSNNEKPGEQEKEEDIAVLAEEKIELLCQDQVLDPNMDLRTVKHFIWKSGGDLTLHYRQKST

One test concerns the target USP1/UAF1 (Homo sapiens (Human), UniProt O94782). Briefly: Deubiquitination assay for USP1/UAF1 activity (ubiquitin-rhodamine 110). In kind it is biochemical. The note with it: Table 3; 0.05 nM USP1/UAF1, 150 nM ubiquitin-rhodamine. How it is done:
Certain Compounds of the Disclosure were assessed for USP1/UAF1 activity in a Ubiquitin Rhodamine assay modified from those described previously.
Deubiquitinase activity was measured using ubiquitin-rhodamine 110 as a substrate. Cleavage of the amide bond between rhodamine and the c-terminal glycine of ubiquitin yields an increase in fluorescence signal. The assay was conducted in 20 ul total volume of assay buffer (50 mM Tris-HCl, pH 7.8, 0.5 mM EDTA, 0.01% Bovine Serum Albumin, 1 mM DTT, 0.01% Tween-20), and 0.05 nM USP1/UAF1 enzyme.
Compounds, dissolved in DMSO were tested in dose response format, beginning at 10 uM.
Compounds depicted below were added to enzyme/assay buffer mix and incubated 10 min.
Data for all assay formats was calculated as percent inhibition compared with control wells. […] IC50 values were calculated using the standard four parameter curve fitting algorithm in either Prism GraphPad (La Jolla, Calif.) software, or Collaborative Drug Discovery (Burlingame, Calif.) CDD Vault.
In turn, `CCOc1ncnc(OCC)c1-c1ncc2cnn(Cc3ccc(-c4nc(C(F)(F)F)cn4CC)cc3)c2n1` [drawing 733] showed a pIC50 above 8.00.

Regarding `Cc1cnn(C(C)C)c1-c1ncc2cnn(Cc3ccc(-n4nc(C(F)(F)F)cc4C)cc3)c2n1` [drawing 734], the pIC50 is above 8.00.

Consider `CCOc1cc(C(F)(F)F)nn1-c1ccc(Cn2ncc3cnc(-c4c(OC)ncnc4C4CC4)nc32)cc1` [drawing 735], for which the negative logarithm of the IC50 (pIC50) was above 8.00.

Regarding `COc1ncnc(C2CC2)c1-c1ncc2cnn(Cc3ccc(-c4cn(C)c(C(F)(F)F)n4)cc3)c2n1` [drawing 736], the pIC50 was 7.00 to 8.00.

`COc1ncnc(C2CC2)c1-c1ncc2cnn(Cc3ccc(-n4nc(C(F)(F)F)cc4OC)cc3)c2n1` [drawing 737]: the negative logarithm of the IC50 (pIC50) is 7.00 to 8.00.

Turning to `CCn1cc(C(F)(F)F)nc1-c1ccc(Cn2ncc3cnc(-c4c(OC)ncnc4C4CC4)nc32)cc1` [drawing 738], the pIC50 was 7.00 to 8.00.

`COc1ncnc(C2CC2)c1-c1ncc2cnn(Cc3ccc(-c4nc(C(F)(F)F)cn4C4CC4)cc3)c2n1` [drawing 739] showed a pIC50 of 7.00 to 8.00.

In the case of `CCn1cc(C(F)(F)F)nc1-c1ccc(Cn2ncc3cnc(-c4c(OC(C)(C)C)ncnc4C4CC4)nc32)cc1` [drawing 740], the pIC50 is 7.00 to 8.00.

In turn, `CCn1cc(C(F)(F)F)nc1-c1ccc(Cn2ncc3cnc(-c4c(OCCF)ncnc4C4CC4)nc32)cc1` [drawing 741] had a pIC50 of 7.00 to 8.00.

On to `[2H]C([2H])([2H])Oc1ncnc(C2CC2)c1-c1ncc2cnn(Cc3ccc(-c4nc(C(F)(F)F)cn4CC)cc3)c2n1` [drawing 744], for which the negative-log IC50 (pIC50) is 7.00 to 8.00.

The compound `COc1ncnc(C2CC2)c1-c1ncc2cnn(Cc3ccc(-c4nc(C(F)(F)F)cn4C)c(F)c3)c2n1` [drawing 746] gave a pIC50 of 7.00 to 8.00.

For the compound `COc1ncnc(C2CCC2)c1-c1ncc2cnn(Cc3ccc(-c4nc(C(F)(F)F)cn4C)cc3)c2n1` [drawing 749], the negative logarithm of the IC50 (pIC50) is 7.00 to 8.00.

The compound `CCn1cc(C(F)(F)F)nc1-c1ccc(Cn2ncc3cnc(-c4c(OC5CC5)ncnc4C4CC4)nc32)cc1` [drawing 750] had a pIC50 of 7.00 to 8.00.

In turn, `CCn1cc(C(F)(F)F)nc1-c1ccc(Cn2ncc3cnc(-c4c(OC5CCC5)ncnc4C4CC4)nc32)cc1` [drawing 752] had a negative-log IC50 (pIC50) of 7.00 to 8.00.

With `CCn1cc(C(F)(F)F)nc1-c1ccc(Cn2ncc3cnc(-c4c(OC)ncnc4OC)nc32)cc1` [drawing 755], the pIC50 is 7.00 to 8.00.

`CC(C)Oc1ncnc(C2CC2)c1-c1ncc2cnn(Cc3ccc(-c4nc(C(F)(F)F)cn4C)cc3)c2n1` [drawing 756] showed a pIC50 of 7.00 to 8.00.

The compound `COc1ncnc(C(C)(C)C)c1-c1ncc2cnn(Cc3ccc(-c4nc(C(F)(F)F)cn4C)cc3)c2n1` [drawing 757] had a pIC50 of 7.00 to 8.00.

With `COc1ncnc(C2CC2)c1-c1ncc2cnn(Cc3ccc(-c4nc(C(F)(F)F)cn4C)cc3F)c2n1` [drawing 758], the pIC50 was 7.00 to 8.00.

On to `COc1nc(C)nc(C2CC2)c1-c1ncc2cnn(Cc3ccc(-c4nc(C(F)(F)F)cn4C)cc3)c2n1` [drawing 760], for which the pIC50 was 7.00 to 8.00.

The compound `CCn1cc(C(F)(F)F)nc1-c1ccc(Cn2ncc3cnc(-c4c(OC)cnn4C4CC4)nc32)cc1` [drawing 761] showed a pIC50 of 7.00 to 8.00.

For `COc1ncnc(C2CC2)c1-c1ncc2cnn(Cc3ccc(-n4nc(C(F)F)cc4C)cc3)c2n1` [drawing 762], the pIC50 is 7.00 to 8.00.

For the compound `CCOc1ncnc(C2CC2)c1-c1ncc2cnn(Cc3ccc(-c4nc(C(F)(F)F)cn4C)cc3)c2n1` [drawing 763], the pIC50 was 7.00 to 8.00.

`COc1ncnc(C2CC2)c1-c1ncc2cnn(Cc3ccc(-c4nc(C(F)(F)F)cn4CCF)cc3)c2n1` [drawing 764] showed a pIC50 of 7.00 to 8.00.

In turn, `COc1ncnc(C2CC2)c1-c1ncc2cnn(Cc3ccc(-c4nc(C(F)(F)F)c[nH]4)cc3)c2n1` [drawing 765] gave a pIC50 of 7.00 to 8.00.

In the case of `COc1ncnc(OC)c1-c1ncc2cnn(Cc3ccc(-c4nc(C(F)(F)F)cn4C)cc3)c2n1` [drawing 766], the pIC50 is 7.00 to 8.00.

In turn, `CCn1cc(C(F)(F)F)nc1-c1ccc(Cn2ncc3cnc(-c4c(OC)ncnc4C4CC4)nc32)cn1` [drawing 767] gave a pIC50 of 7.00 to 8.00.

Take `COc1ncnc(C2CC2)c1-c1ncc2cnn(Cc3ccc(-n4nc(C(F)(F)F)cc4OC)nc3)c2n1` [drawing 768]: the pIC50 was 7.00 to 8.00.

The compound `COc1ncnc(C2(C)CC2)c1-c1ncc2cnn(Cc3ccc(-c4nc(C(F)(F)F)cn4C)cc3)c2n1` [drawing 769] showed a pIC50 of 7.00 to 8.00.

As to `COc1ncnc(C2CC2)c1-c1ncc2cnn(Cc3ccc(-c4nc(C(F)(F)F)cn4C4COC4)cc3)c2n1` [drawing 770], the pIC50 was 7.00 to 8.00.

For `CCn1cc(C(F)(F)F)nc1-c1ccc(Cn2ncc3cnc(-c4c(C5CC5)cnn4CC)nc32)cc1` [drawing 771], the negative-log IC50 (pIC50) is 7.00 to 8.00.

As to `COc1ncnc(C(C)(C)F)c1-c1ncc2cnn(Cc3ccc(-c4nc(C(F)(F)F)cn4C)cc3)c2n1` [drawing 772], the pIC50 was 7.00 to 8.00.

`COc1ncnc(C2CC2)c1-c1ncc2cnn(Cc3ccc(-c4nc(C(F)(F)F)c5n4CCNC5)cc3)c2n1` [drawing 773] showed a negative logarithm of the IC50 (pIC50) of 7.00 to 8.00.

`COc1ncnc(C2CC2)c1-c1ncc2cnn(Cc3ccc(-c4nc(C(F)(F)F)cn4C4CN(C)C4)cc3)c2n1` [drawing 775] had a pIC50 of 7.00 to 8.00.

`Cc1ncnc(C(C)C)c1-c1ncc2cnn(Cc3ccc(-n4nc(C(F)(F)F)cc4C)cc3)c2n1` [drawing 776] showed a pIC50 of 7.00 to 8.00.

The compound `COc1ncnc(C2CC2)c1-c1ncc2cnn(Cc3ccc(-c4nc(C(F)(F)F)n(C)n4)cc3)c2n1` [drawing 778] showed a pIC50 of 7.00 to 8.00.

In turn, `CSc1ncnc(C)c1-c1ncc2cnn(Cc3ccc(-n4nc(C(F)(F)F)cc4C)cc3)c2n1` [drawing 779] gave a pIC50 of 7.00 to 8.00.

Turning to `COCCOc1ncnc(C2CC2)c1-c1ncc2cnn(Cc3ccc(-n4nc(C(F)(F)F)cc4C)cc3)c2n1` [drawing 781], the pIC50 was 6.70 to 7.00.

Compound `COc1ncnc(C)c1-c1ncc2cnn(Cc3ccc(-n4nc(C(F)(F)F)cc4C)cc3)c2n1` [drawing 784] had a pIC50 of 6.70 to 7.00.

With `COCCOc1ncnc(C2CC2)c1-c1ncc2cnn(Cc3ccc(-c4nc(C(F)(F)F)cn4C)cc3)c2n1` [drawing 787], the pIC50 was below 6.70.

On to `COCCOc1ncnc(C)c1-c1ncc2cnn(Cc3ccc(-n4nc(C(F)(F)F)cc4C)cc3)c2n1` [drawing 789], for which the pIC50 is below 6.70.

The compound `COc1nc(C)c(-c2ncc3cnn(Cc4ccc(-c5nc(C(F)(F)F)cn5C)cc4)c3n2)c(OC)n1` [drawing 793] had a pIC50 below 6.70.

`Cc1cc(C(F)(F)F)nn1-c1ccc(Cn2ncc3cnc(-c4cccnc4C#N)nc32)cc1` [drawing 797] showed a pIC50 below 6.70.

Staying with this test, now noted: Table 4; 0.05 nM USP1/UAF1, 150 nM ubiquitin-rhodamine.
`CCn1cc(C(F)(F)F)nc1-c1ccc(Cn2nc(SC)c3cnc(-c4c(OC)ncnc4C4CC4)nc32)cc1` [drawing 800] showed a pIC50 of 7.00 to 8.00.

Take `CCn1cc(C(F)(F)F)nc1-c1ccc(Cn2nc(SCc3ccc(OC)cc3)c3cnc(-c4c(OC)ncnc4C4CC4)nc32)cc1` [drawing 801]: the negative-log IC50 (pIC50) was 7.00 to 8.00.

`COc1ncnc(C2CC2)c1-c1ncc2c(OC)nn([C@@H](C)c3ccc(-c4nc(C(F)(F)F)c(Br)n4C)cc3)c2n1` [drawing 802] showed a pIC50 of 7.00 to 8.00.

As for `COCc1nc2cnc(-c3c(OC)ncnc3C3CC3)nc2n1Cc1ccc(-c2nc(C(F)(F)F)cn2C(C)C)cc1` [drawing 804], the pIC50 was 7.00 to 8.00.

The compound `COc1ncnc(C2CC2)c1-c1ncc2nc(C(C)C)n(Cc3ccc(-c4nc(C(F)(F)F)cn4C(C)C)cc3)c2n1` [drawing 805] had a pIC50 of 7.00 to 8.00.

For the compound `CCn1cc(C(F)(F)F)nc1-c1ccc(Cn2nc(OC3CCC3)c3cnc(-c4c(OC)ncnc4C4CC4)nc32)cc1` [drawing 806], the pIC50 is 7.00 to 8.00.

The compound `COc1ncnc(C2CC2)c1-c1ncc2c(OC)nn(Cc3ccc(-c4cn(C(C)C)c(C(F)(F)F)n4)cc3)c2n1` [drawing 807] showed a pIC50 of 7.00 to 8.00.

For `CCc1nc2cnc(-c3c(OC)ncnc3C3CC3)nc2n1Cc1ccc(-c2nc(C(F)(F)F)cn2C(C)C)cc1` [drawing 808], the pIC50 was 7.00 to 8.00.

Compound `COc1ncnc(C2CC2)c1-c1ncc2c(OC)nn([C@@H](C)c3ccc(-c4nc(C(F)(F)F)cn4CCF)cc3)c2n1` [drawing 809] showed a pIC50 of 7.00 to 8.00.

`CCn1cc(C(F)(F)F)nc1-c1ccc(Cn2nc(N3CCC3)c3cnc(-c4c(OC)ncnc4C4CC4)nc32)cc1` [drawing 810] showed a pIC50 of 7.00 to 8.00.

On to `CCn1c(-c2ccc(Cn3nc(OC)c4cnc(-c5c(OC)ncnc5C5CC5)nc43)cc2)nc(C(F)(F)F)c1Br` [drawing 811], for which the pIC50 was 7.00 to 8.00.

`COc1ncnc(C2CC2)c1-c1ncc2c(OC)nn(C(C)c3ccc(-c4nc(C(F)(F)F)cn4CCF)cc3)c2n1` (centres unmarked) [drawing 812]: the negative-log IC50 (pIC50) is 7.00 to 8.00.

`CCn1cc(C(F)(F)F)nc1-c1ccc([C@H](C)n2nc(OC)c3cnc(-c4c(OC)ncnc4C4CC4)nc32)cc1` [drawing 813] showed a pIC50 of 7.00 to 8.00.

`COc1ncnc(C2CC2)c1-c1ncc2c(OC)nn([C@@H](C)c3ccc(-c4nc(C(F)(F)F)cn4C(C)C)cc3)c2n1` [drawing 814] showed a pIC50 of 7.00 to 8.00.

Take `CCOc1ncnc(C2CC2)c1-c1ncc2c(OCC)nn(Cc3ccc(-c4nc(C(F)(F)F)cn4CC)cc3)c2n1` [drawing 815]: the pIC50 is 7.00 to 8.00.

Consider `CCOc1nn(Cc2ccc(-c3nc(C(F)(F)F)cn3CC)cc2)c2nc(-c3c(OC)ncnc3C3CC3)ncc12` [drawing 816], for which the pIC50 is 7.00 to 8.00.

The compound `CCn1cc(C(F)(F)F)nc1-c1ccc(Cn2nc(OC)c3cnc(-c4c(OC)ncnc4C4CC4)nc32)cc1F` [drawing 817] gave a pIC50 of 7.00 to 8.00.
